Molecules are shown by their SMILES.

Data on 1 molecule can be found in patent US20030104975A1, “Cofactor-based screening method for nuclear receptor modulators and related modulators” (priority 2001, published 2003).

One assay addresses T1, PPARγ DE / p300Nt-GST (Homo sapiens, UniProt P37231).
T1 construct: made in house; host or cells: E. coli BL21 (DE3) for PPARgamma, pET15b; E. coli for the GST fusion, pGex4-T1
As to the kind of experiment: GST pull-down assay, PPARγ DE with p300Nt-GST. It is filed as binding. To be noted: anti-histidine blot, rosiglitazone 10^-4 M, FMOC-L-Leu 10^-3 M, compared to DMSO. From the text:
(§1) The beads were then washed and the samples separated on SDS-PAGE. Blots were developed with anti-histidine antibodies.
(§2) Production of proteins. The p300Nt-GST, SRC-1-GST and TIF2-GST fusion proteins were generated by cloning the N-terminal part of the cDNA coding for the p300 protein (amino acids 2 to 516), the region comprised between amino acids 568 and 780 of SRC-1 (SEQ ID NO: 03), and the domain between amino acids 618 and 826 of TIF2 (SEQ ID NO: 01), respectively, downstream of the glutathione-S-transferase (GST) protein in the pGex4-T1 vector (Pharmacia, Orsay, France). The fusion proteins were then expressed in E. coli and purified on a glutathione affinity matrix (Pharmacia). 6×-histidine-tagged human PPAR-gamma LBD (residues 203-477 of SEQ ID NO: 06) was overproduced in E. coli BL21 (DE3) using the pET15b as an expression plasmid (Novagen, Madison, Wis.) and purified by metal ion affinity chromatography on a Co^2+-loaded HiTrap Chelating column (Pharmacia Biotech, Peapack, N.J.) followed by gel filtration chromatography on a HiLoad Supcrdex 100 column (Pharmacia). The protein concentration was determined by the Bradford method (1976, Anal Biochem 72, 248-254).
(§3) Pull-down experiments. […] The beads were then washed 4 times with pull-down buffer and boiled in 4×-sample buffer. The samples were separated by 12% acrylamide SDS-PAGE and transferred to nitrocellulose membranes.

The target in assay [1] is T2, PPARγ DE/SRC-1-GST complexes (Homo sapiens, UniProt P37231).
T2 sequence (P37231 203-477 isoform P37231-2): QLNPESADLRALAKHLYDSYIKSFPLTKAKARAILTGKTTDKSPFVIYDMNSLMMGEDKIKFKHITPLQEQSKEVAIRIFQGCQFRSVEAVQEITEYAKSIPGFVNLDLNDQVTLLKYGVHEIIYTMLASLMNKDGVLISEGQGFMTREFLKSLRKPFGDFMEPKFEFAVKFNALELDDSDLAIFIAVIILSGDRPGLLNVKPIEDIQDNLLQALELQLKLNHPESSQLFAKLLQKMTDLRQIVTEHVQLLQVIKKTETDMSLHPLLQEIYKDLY
To be noted: GST pull-down, anti-histidine blot; rosiglitazone 10^-4 M, FMOC-L-Leu 10^-3 M; compared to DMSO.
Excerpt: as §1, §2, §3

In a further assay the target is T3, PPARγ DE / TIF2-GST (Homo sapiens, UniProt P37231).
T3 construct: made in house; host or cells: E. coli BL21 (DE3) for PPARgamma, pET15b; E. coli for the GST fusion, pGex4-T1
T3 sequence (P37231 203-477 isoform P37231-2): T2 sequence (P37231 203-477 isoform P37231-2)
As to the kind of experiment: GST pull-down assay, PPARγ DE with TIF2-GST. To be noted: anti-histidine blot, rosiglitazone 10^-4 M, FMOC-L-Leu 10^-3 M, compared to DMSO. It is filed as binding.
Excerpt: as §1, §2, §3

The target in a further assay is T4, BDGal4-hPPARγ DE / TIF2 (Homo sapiens, UniProt P37231).
T4 construct: expressed in transfected cells; host or cells: RK13 cells (ATCC)
T4 sequence (P37231 238-503 limits assumed): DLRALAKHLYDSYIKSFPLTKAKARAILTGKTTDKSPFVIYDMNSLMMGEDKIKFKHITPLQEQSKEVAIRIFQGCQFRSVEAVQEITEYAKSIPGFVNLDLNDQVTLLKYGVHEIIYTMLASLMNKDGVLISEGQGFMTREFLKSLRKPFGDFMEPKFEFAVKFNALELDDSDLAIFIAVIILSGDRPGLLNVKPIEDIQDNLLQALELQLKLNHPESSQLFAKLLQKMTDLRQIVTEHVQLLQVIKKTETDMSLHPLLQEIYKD
Kind of assay: Mammalian two-hybrid assay in RK13 cells, Gal4-hPPARγ DE with TIF2. It counts as cell-based. To be noted: 24 h, FMOC-L-Leu 10^-5M, rosiglitazone 10^-7M. Here is the method: (§4) FIG. 2: Interactions between PPAR-gamma and cofactors in cultured mammalian cells. Mammalian two-hybrid interaction between PPAR-gamma and the various co-activators in RK13 cells co-transfected with an expression vector for BDGal4-hPPARγ DE, pGL3-(Gal4)5TKLuc reporter construct, pCMV-βGal, as a control of transfection efficiency, and different expression vectors for different cofactors. Cells were grown during 24 h in the presence or absence of the indicated compound. Luciferase activity has been normalized. […] Each point was performed in triplicate. Bars not sharing similar superscripts are statistically different from each other (P<0.05, Fisher's Post-hoc analysis of 2×2 ANOVA with ligands and constructs as factors).
(§5) RK-13 cells were obtained from ATCC (Rockville, Md.). Cells were maintained in Dulbecco's modified Eagle's minimal essential medium (DMEM) supplemented with 10% fetal calf serum (FCS), L-glutamine, and antibiotics. Transfection studies with luciferase (luc.) reporter constructs were carried out as described previously (Oberfield et al., 1999, Proc Natl. Acad Sci USA 96, 6102-6106). The pGL3-(Gal4)5TKLuc reporter constructs are described elsewhere (Gelman et al., 1999, J. Biol. Chem. 274, 7681-7688). […]

For a further assay, the target named is T5, BDGal4-hPPARγ DE / SRC-1 (Homo sapiens, UniProt P37231).
T5 construct: expressed in transfected cells; host or cells: RK13 cells (ATCC)
T5 sequence (Q15788 whole entry partner, one chain of several, the tested form may be a part): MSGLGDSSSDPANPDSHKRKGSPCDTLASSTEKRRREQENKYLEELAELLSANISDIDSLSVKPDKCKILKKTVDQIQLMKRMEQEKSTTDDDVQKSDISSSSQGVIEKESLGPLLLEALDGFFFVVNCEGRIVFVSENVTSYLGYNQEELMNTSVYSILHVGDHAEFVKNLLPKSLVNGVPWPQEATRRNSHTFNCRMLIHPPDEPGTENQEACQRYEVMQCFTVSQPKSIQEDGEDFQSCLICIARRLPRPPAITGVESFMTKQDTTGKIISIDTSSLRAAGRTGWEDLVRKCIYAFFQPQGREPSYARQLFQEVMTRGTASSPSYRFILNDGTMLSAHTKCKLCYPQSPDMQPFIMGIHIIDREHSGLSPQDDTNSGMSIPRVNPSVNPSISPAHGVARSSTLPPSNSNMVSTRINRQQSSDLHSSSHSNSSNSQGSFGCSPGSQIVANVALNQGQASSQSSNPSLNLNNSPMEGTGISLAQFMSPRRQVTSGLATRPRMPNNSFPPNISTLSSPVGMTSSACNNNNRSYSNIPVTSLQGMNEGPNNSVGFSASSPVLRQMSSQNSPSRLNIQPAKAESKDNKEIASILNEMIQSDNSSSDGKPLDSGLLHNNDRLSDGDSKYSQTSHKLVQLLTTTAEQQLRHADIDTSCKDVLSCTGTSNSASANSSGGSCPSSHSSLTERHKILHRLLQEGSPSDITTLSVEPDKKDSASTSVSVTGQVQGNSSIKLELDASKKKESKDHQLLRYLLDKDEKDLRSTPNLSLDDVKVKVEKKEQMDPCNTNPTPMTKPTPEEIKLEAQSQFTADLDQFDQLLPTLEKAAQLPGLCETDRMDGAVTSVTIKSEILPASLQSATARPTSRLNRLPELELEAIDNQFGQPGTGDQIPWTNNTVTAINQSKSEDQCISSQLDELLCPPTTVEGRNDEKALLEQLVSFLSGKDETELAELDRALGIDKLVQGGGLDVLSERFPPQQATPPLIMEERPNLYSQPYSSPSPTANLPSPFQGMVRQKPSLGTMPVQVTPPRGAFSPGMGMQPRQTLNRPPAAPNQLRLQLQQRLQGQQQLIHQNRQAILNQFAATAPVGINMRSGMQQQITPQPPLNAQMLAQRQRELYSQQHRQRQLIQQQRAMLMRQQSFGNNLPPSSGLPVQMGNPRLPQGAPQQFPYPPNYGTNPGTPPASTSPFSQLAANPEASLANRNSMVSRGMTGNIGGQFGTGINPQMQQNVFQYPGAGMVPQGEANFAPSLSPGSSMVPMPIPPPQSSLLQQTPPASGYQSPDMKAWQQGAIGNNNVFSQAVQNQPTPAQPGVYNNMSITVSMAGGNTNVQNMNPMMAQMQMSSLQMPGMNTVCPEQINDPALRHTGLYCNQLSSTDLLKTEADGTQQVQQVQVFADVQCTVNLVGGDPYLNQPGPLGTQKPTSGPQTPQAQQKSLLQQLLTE
As to the kind of experiment: Mammalian two-hybrid assay in RK13 cells, Gal4-hPPARγ DE with SRC-1. It is filed as cell-based. To be noted: 24 h, FMOC-L-Leu 10^-5M. The protocol: as §4, §5

A further assay deals with T6, BDGal4-hPPARγ DE / p300 (Homo sapiens, UniProt P37231).
T6 construct: expressed in transfected cells; host or cells: RK13 cells (ATCC)
T6 sequence (P37231 238-503 limits assumed): T4 sequence (P37231 238-503 limits assumed)
Kind of assay: Mammalian two-hybrid assay in RK13 cells, Gal4-hPPARγ DE with p300. It is filed as cell-based. To be noted: 24 h, FMOC-L-Leu 10^-5M. The protocol:
as §4, §5

For another assay, the system named is 3T3-L1 cells. Kind of assay: 3T3-L1 adipocyte differentiation assay. It is filed as cell-based, murine. To be noted: FMOC-L-Leu 10^-5 M. Here is the method: A: Expression of adipocyte markers during differentiation of 3T3-L1 cells treated with different PPAR-gamma agonists. Confluent 3T3-L1 cells were incubated with 2 μM insulin, 1 μM dexamethasone, and 0.25 mM isobuthyl methyl xanthine for two days. […] RNA was isolated from 3T3-L1 cells after different times of differentiation induction. Blots were hybridized with DNA probes that specifically bind to 36B4 (to control for RNA loading), lipoprotein lipase (LPL), or aP2.
Cells were stained with Oil Red O after 6 days of treatment.
3T3-L1 cells (ATCC, Rockville, Md.) were grown to confluence in medium A (Dulbecco's modified Eagle's Medium with 10% fetal calf serum, 100 units/ml penicillin, and 100 μg/ml streptomycin). Confluent cell were incubated in medium A containing 2 μM insulin, 1 μM dexamethasone, and 0.25 mM isobuthyl methyl xanthine for two days. Then, the cells were incubated in medium A in presence or absence of PPARγ agonist for 4 days, changing the medium every 2 days. Adipogenesis was evaluated by analysis of the expression of adipocyte-specific markers and by staining of lipids with Oil Red O (Chawla & Lazar, 1994, Proc. Natl. Acad. Sci. USA 91, 1786-1790).
RNA was isolated from 3T3-L1 cells by the acid guanidinium thiocyanate/phenol/chloroform method (Chomczynski & Sacchi, 1987, Anal. Biochem. 162, 156-159). Northern blot analysis of total cellular RNA was performed as described (Auwerx et al., 1989, Mol. Cell. Biol. 9, 2298-2302). Lipoprotein lipase (LPL), aP2 and 36B4 were used as probes (Lefebvre et al., 1997, Arterioscler.Thromb.Vasc.Biol. 17, 1756-1764; Laborda, 1991, Nucl. Acids Res. 19, 3998; Graves et al., 1992, Mol. Cell. Biol 12, 1202-1208).

Setting [2] is: Northern blot, extent close to rosiglitazone 10^-7 M.

T1 sequence (Q09472 2-516 partner limits assumed, one chain of several): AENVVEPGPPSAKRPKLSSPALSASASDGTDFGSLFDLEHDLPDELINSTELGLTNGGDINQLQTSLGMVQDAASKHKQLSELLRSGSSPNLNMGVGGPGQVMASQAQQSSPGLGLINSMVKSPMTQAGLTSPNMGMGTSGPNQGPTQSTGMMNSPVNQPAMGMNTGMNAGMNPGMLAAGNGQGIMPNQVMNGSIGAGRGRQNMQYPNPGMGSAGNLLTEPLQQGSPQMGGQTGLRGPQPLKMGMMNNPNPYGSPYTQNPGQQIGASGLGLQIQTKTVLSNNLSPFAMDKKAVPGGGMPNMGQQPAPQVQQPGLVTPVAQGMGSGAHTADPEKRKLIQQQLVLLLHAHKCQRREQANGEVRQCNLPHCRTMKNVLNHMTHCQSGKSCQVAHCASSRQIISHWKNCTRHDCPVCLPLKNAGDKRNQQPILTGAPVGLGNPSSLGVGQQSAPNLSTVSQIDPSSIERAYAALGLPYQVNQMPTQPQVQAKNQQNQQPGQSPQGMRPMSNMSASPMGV

Turning to `CC(C)C[C@H](NC(=O)OCC1c2ccccc2-c2ccccc21)C(=O)O` [FMOC-L-Leu, FMOC-L-leucine], the “interaction between the PPARγ DE and p300Nt-GST” value on PPARγ DE / p300Nt-GST is on record as “increased the interaction”. The “formation of PPARγ DE/SRC-1-GST complexes” value in assay [1] was “induced the formation”. Further, the “interaction between TIF2 and the PPARγ DE” value on PPARγ DE / TIF2-GST is recorded as “not with FMOC-L-Leu”. In addition, the “transactivation (luciferase) in the presence of TIF2” value at BDGal4-hPPARγ DE / TIF2 was “no significant increase in transactivation”. In addition, on BDGal4-hPPARγ DE / SRC-1, the “transactivation (luciferase) in the presence of SRC-1” value is “much more pronounced and significant induction”. Also, the “transactivation (luciferase) in the presence of p300” value on BDGal4-hPPARγ DE / p300 is recorded as “no significant increase in transactivation”. The “neutral lipid accumulation (Oil Red O staining)” value in the assay with 3T3-L1 cells (6 day incubation, rosiglitazone 10^-7 M) is “capable of inducing neutral lipid accumulation”. Moreover, in the assay with 3T3-L1 cells (setting [2]), the “LPL mRNA levels” value was “significantly stimulated” and the “aP2 mRNA levels” value is reported as “significantly stimulated”.
